PMC11062922 (Nature Chemical Biology, 2023)
Like-named read-outs stand apart in the source and are kept apart here.

Tests used:
[1] = molecular target: CSNK2A2 (Homo sapiens, UniProt P19784); assay: Kinobeads two-dose competition binding: CSNK2A2; parameters: to maximize the representation of endogenous proteins; endogenous in cells; settings: for CATDS: target CSNK2A2
From the text: (§1) Briefly, Kinobeads comprise seven broad-spectrum small molecule kinase inhibitors immobilized on Sepharose beads. […]. Compounds of interest are set to compete for target protein binding with Kinobeads in the lysate and the amount of a given protein bound to Kinobeads in the presence of a compound can be quantified relative to a dimethylsulfoxide (DMSO) vehicle control by label-free mass spectrometry. This assay measures the physical interaction of a compound with thousands of endogenous proteins in parallel and, when systematically increasing the concentration of competitor, enables the calculation of an apparent interaction constant ( Kdapp ) for each compound and protein.
(§2) Kinobeads pulldown experiments were performed as described previously[13],[14],[17] with minor modification. […] The protein concentration was adjusted to 5 mg ml^−1. Kinase inhibitors were spiked into 0.5 ml of cell lysate at final concentrations of 100 and 1,000 nM (or DMSO, 0.3, 1, 3, 10, 30, 100, 300 and 1,000 nM for full dose experiments). […] Lysates were incubated for 45 min at 4 °C. Subsequently, lysates were incubated with Kinobeads ε (17.5 µl of settled beads) for 30 min at 4 °C. To assess the degree of protein depletion from the lysates by Kinobeads, the flow through of the DMSO control was recovered for a pulldown of pulldown experiment where the lysate was incubated a second time with fresh Kinobeads. Beads were washed in three steps with buffer containing 0.4%, 0.2% and no IGEPAL. Bound proteins were reduced with 50 mM DTT in 8 M Urea, 40 mM Tris-HCl pH 7.4 for 30 min at room temperature. After alkylation with 55 mM chloroacetamide, the urea concentration was reduced to 1–2 M and proteins were digested with trypsin. Acidified peptides were desalted and concentrated using SepPak tC18 µEluation plates (Waters). Samples were frozen, dried by vacuum centrifugation and stored at −20 °C.
(§3) Each kinase inhibitor was processed together with all DMSO controls of the same plate. Additionally, each search was supplemented with five high quality DMSO controls for consistent peptide identification and protein grouping. The resultant file (proteinGroups.txt) was used for subsequent filtering, normalization, data visualization and target annotation that was automatically performed by a data processing pipeline built in house that used R (including the ‘drc’ and ‘heatmap’ packages). First, reverse hits, potential contaminants and not quantified proteins in the DMSO control samples were discarded. Protein raw and label-free quantification intensities were normalized to the median DMSO control intensity to obtain relative residual binding intensities for each protein group at every inhibitor concentration and standard deviations of the DMSO control intensity were calculated. IC50 values were estimated based on the following equation IC50=I×100−inhibition/inhibition where [I] is the inhibitor concentration that was used for IC50 calculation and ‘inhibition’ the relative residual binding intensity. […]. Estimated Kdapp values were then calculated by multiplying the estimated IC50 values with a protein-dependent correction factor that was limited to a maximum value of one. The correction factor accounts for the depletion of a target protein from the lysate by Kinobeads. The depletion can be measured by the ratio of the amount of protein captured in two consecutive pulldowns of the same DMSO control lysate. In this study, correction factors were determined in separate experiments using the same lysate mixture and the same bead batch. Correction factors were set to the median of all correction factors. Targets of kinase inhibitors were annotated using the previously published random forest classifier. A training data set was annotated manually. […]

[2] = molecular target: T1, GAK (Homo sapiens, UniProt O14976); assay: Kinobeads two-dose competition binding: GAK; settings: for CATDS: target GAK
T1 construct: endogenous in cells
T1 sequence (O14976 1-1311): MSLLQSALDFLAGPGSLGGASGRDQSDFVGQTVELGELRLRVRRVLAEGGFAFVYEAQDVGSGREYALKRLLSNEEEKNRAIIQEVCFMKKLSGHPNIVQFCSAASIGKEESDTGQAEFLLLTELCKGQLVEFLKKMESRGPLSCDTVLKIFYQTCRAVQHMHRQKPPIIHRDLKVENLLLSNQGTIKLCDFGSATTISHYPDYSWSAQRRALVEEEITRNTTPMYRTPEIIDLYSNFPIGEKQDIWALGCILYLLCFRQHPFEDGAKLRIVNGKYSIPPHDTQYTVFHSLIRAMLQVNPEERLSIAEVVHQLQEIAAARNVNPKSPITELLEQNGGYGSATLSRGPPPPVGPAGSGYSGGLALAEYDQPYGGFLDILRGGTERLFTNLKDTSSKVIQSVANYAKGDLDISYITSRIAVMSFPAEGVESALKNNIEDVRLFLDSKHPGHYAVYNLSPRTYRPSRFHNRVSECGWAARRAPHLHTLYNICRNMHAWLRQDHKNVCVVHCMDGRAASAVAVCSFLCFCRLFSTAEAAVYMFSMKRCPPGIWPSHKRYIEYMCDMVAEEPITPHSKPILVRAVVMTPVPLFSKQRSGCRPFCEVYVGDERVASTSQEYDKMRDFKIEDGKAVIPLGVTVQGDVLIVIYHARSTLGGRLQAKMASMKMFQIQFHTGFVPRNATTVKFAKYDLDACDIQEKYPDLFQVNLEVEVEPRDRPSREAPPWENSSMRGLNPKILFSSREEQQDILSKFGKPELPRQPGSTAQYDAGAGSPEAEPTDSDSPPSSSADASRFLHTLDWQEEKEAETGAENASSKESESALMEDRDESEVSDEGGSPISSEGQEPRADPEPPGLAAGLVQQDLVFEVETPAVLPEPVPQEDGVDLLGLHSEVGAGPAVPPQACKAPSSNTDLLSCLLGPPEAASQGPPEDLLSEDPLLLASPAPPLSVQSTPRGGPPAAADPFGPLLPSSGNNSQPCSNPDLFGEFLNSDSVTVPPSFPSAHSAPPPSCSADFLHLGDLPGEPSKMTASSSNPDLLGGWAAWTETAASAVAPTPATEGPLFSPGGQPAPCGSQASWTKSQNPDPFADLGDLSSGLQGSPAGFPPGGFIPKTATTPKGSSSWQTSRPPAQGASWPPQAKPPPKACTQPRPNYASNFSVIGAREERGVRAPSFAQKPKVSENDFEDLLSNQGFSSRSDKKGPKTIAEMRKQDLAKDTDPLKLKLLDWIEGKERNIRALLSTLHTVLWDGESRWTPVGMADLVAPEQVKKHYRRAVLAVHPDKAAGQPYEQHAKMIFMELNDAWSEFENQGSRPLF
From the text: as §1, §2, §3

Row | SMILES | CATDS [1] | CATDS [2] | further results
1 | CCc1cc2c(cc1N1CCC(N3CCOCC3)CC1)C(C)(C)c1[nH]c3cc(C#N)ccc3c1C2=O [Alectinib] | 0 | 0.6004 | –
2 | CN(C)C/C=C/C(=O)Nc1cc2c(Nc3ccc(F)c(Cl)c3)ncnc2cc1O[C@H]1CCOC1 [Afatinib] | 0 | 0 | –
3 | C#Cc1cccc(Nc2ncnc3cc(OC)c(OC4CCN(C)CC4)cc23)c1 [BI00007366] | – | – | potency estimated from few doses ([2]; Kinobeads two-dose, Drugmatrix - all 2, read-out: apparent Kd GAK): 634 nM
4 | Nc1ncnc2[nH]c(-c3ccccc3)nc12 [AH5015_KCGS] | 0 | 0.09213 | potency estimated from few doses ([1]; Kinobeads two-dose screen (binding), read-out: Kdapp CSNK2A2): > 1000 nM
5 | CCN1CCN(Cc2ccc(Nc3ncc(F)c(-c4cc(F)c5nc(C)n(C(C)C)c5c4)n3)nc2)CC1 [Abemaciclib] | 0.06221 | 0 | –
6 | C[C@]12O[C@H](C[C@]1(O)CO)n1c3ccccc3c3c4c(c5c6ccccc6n2c5c31)CNC4=O [Lestaurtinib] | – | – | potency estimated from few doses ([1]; read-out: Lestaurtinib Drugmatrix value, Gene Name CSNK2A2): 415 nM; potency estimated from few doses ([2]; read-out: Lestaurtinib Drugmatrix value, Gene Name GAK): 577 nM
7 | N#CC1(c2ccc(NC(=O)c3cccnc3NCc3ccncc3)cc2)CCCC1 [Apatinib] | 0 | 0 | –
8 | COc1cc(Nc2ncc3c(C)nc(-c4cc5ccccc5[nH]4)n3n2)cc(OC)c1OC [GW869516X] | – | – | potency estimated from few doses ([1]; CSNK2A2, read-out: Kinobeads Data): 56 nM
